Like-named read-outs stand apart in the source and are kept apart here.
Key:
[1] = molecular target: T1, p53 Y220C mutant protein (amino acid residues 94-293) (Homo sapiens, UniProt P04637, Y220C); assay: Surface Plasmon Resonance (SPR) assay, Kd_kinetic; type: binding; details: read-out: SPR P53 Y220C KD kinetic
T1 construct: p53 Y220C mutant protein (amino acid residues 94-293)
Summary of the method: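 Temperature held at 16 or 20 °C during Biacore 8K runs. Buffer: 50 mM Tris, pH 7.5, 100 mM NaCl, 1 mM DTT, 0.01% Brij35, 0.05% Tween-20, 1% DMSO.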

[2] = molecular target: T1, p53 Y220C mutant protein (amino acid residues 94-293); assay: Thermal Shift Assay (TSA), dTM; type: binding; details: p53 Y220C, read-out: TSA P53 Y220C dTM; for ΔTm at 10 µM: 10 uM compound; for ΔTm at 100 µM: 100 uM compound
Summary of the method: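 5 μM p53 Y220C (residues 94-293) incubated 3 h at 20 °C with 10 μM or 100 μM compound in 20 mM HEPES pH 7.4, 100 mM NaCl, 0.01% Pluronic F-127, 1% DMSO plus Sypro Orange. Melt from 30 to 50 °C at 0.03 °C/s; TM from Boltzmann two-state fit.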

NUGC3 p53 Y220C = assay: Cell Proliferation Assay (CellTiter-Glo, CTG), NUGC3 p53 Y220C; type: cell-based; details: Homo sapiens, NUGC-3, 120 h, NUGC3 cells, 5 days, CellTiter-Glo
Summary of the method: (§1)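 NClH1299 lines stably transduced with Tet-inducible p53 Y220C or R273H, plus NUGC3, were treated with compound for 5 days at 250-500 cells/well. IC50 derived from CellTiter-Glo luminescent signal after 10 min room-temperature incubation.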

p53 Y220C = p53 Y220C (Homo sapiens, UniProt P04637, Y220C); assay: Luciferase Reporter Assay (Luc), p53 response element, NClH1299 cells with inducible p53 Y220C; type: cell-based; details: luciferase reporter, NClH1299 inducible p53 Y220C, 6 hour; for AC50: read-out: Luc P53 Y220C AC50
Summary of the method: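 H1299 cells induced with 0.5 ug/mL doxycycline for 24 hours, then exposed to compound for 6 hours. p53 response-element luciferase read by One-Glo luminescence after 5 min shaking at room temperature.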

H1299 p53 Y220C = assay: Cell Proliferation Assay (CellTiter-Glo, CTG), H1299 p53 Y220C (NClH1299-inducible p53 Y220C); type: cell-based; details: Homo sapiens, NCI-H1299, 120 h, NClH1299-inducible p53 Y220C cells, 5 days, CellTiter-Glo
Summary of the method: as §1

H1299 p53 R273H = assay: Cell Proliferation Assay (CellTiter-Glo, CTG), H1299 p53 R273H (NClH1299-inducible p53 R273H); type: cell-based; details: Homo sapiens, NCI-H1299, 120 h, NClH1299-inducible p53 R273H cells, 5 days, CellTiter-Glo
Summary of the method: as §1

| Structure (SMILES) | Kd [1] [nM] | ΔTm at 10 µM [2] [°C] | IC50 (NUGC3 p53 Y220C) [nM] | AC50 (p53 Y220C) [nM] | Emax (p53 Y220C) [%] | IC50 (H1299 p53 Y220C) [nM] | IC50 (H1299 p53 R273H) [nM] | Kd ([1]; SPR, p53 Y220C) [nM] | ΔTm at 100 µM [2] [°C] |
| --- | --- | --- | --- | --- | --- | --- | --- | --- | --- |
| CNC(=O)c1ccc(NCC#Cc2cc3c(N[C@@H]4CCN(C)C[C@@H]4F)nccn3c2SC(F)(F)F)cc1 [Example 297] | < 10 | ≥ 10 | < 750 | < 750 | > 90 | < 750 | ≥ 10000 | – | – |
| CNC(=O)c1ccc(C#N)c(NCC#Cc2cc3c(N[C@@H]4CCN(C)C[C@@H]4F)nccn3c2SC(F)(F)F)c1 [Example 300] | – | ≥ 10 | < 750 | < 750 | > 90 | < 750 | ≥ 10000 | < 10 | – |
| CNC(=O)c1cc(F)c(OC)c(NCC#Cc2nc3c(N[C@@H]4CCN(C)C[C@@H]4F)cccn3c2SC(F)(F)F)c1 [Example 303] | – | ≥ 10 | < 750 | < 750 | > 90 | < 750 | ≥ 10000 | < 10 | – |
| CNC(=O)c1cc(F)c(OC)c(NCC#Cc2nc3c(N[C@@H]4CCNC[C@@H]4F)cccn3c2SC(F)(F)F)c1 [Example 304] | – | ≥ 10 | < 750 | < 750 | > 90 | < 750 | < 5000 | < 10 | – |
| CCNC(=O)c1ccc(NCC#Cc2cc3c(N[C@@H]4CCN(C)C[C@@H]4F)nccn3c2SC(F)(F)F)c(OC)c1 [Example 306] | – | ≥ 10 | < 750 | < 750 | > 90 | < 750 | 5000 to 8000 | < 10 | – |
| CNC(=O)c1ccc(OC)c(NCC#Cc2nc3c(N[C@@H]4CCNC[C@@H]4F)nccn3c2SC(F)(F)F)c1 [Example 307] | – | ≥ 10 | < 750 | < 750 | 80 to 90 | < 750 | ≥ 10000 | < 10 | – |
| COc1cc2c[nH]nc2cc1NCC#Cc1nc2c(N[C@@H]3CCN(C)C[C@@H]3F)cccn2c1SC(F)(F)F [Example 308, N-[3-(8-{[(3S,4R)-3-fluoro-1-methylpiperidin-4-yl]amino}-3-[(trifluoromethyl)sulfanyl]imidazo[1,2-a]pyridin-2-yl)prop-2-yn-1-yl]-5-methoxy-2H-indazol-6-amine] | – | ≥ 10 | < 750 | < 750 | 80 to 90 | < 750 | < 5000 | < 10 | ≥ 10 |
| CCNC(=O)c1ccc(OC)c(NCC#Cc2nc3c(N[C@@H]4CCN(C)C[C@@H]4F)nccn3c2SC(F)(F)F)c1 [Example 309] | – | ≥ 10 | < 750 | < 750 | 70 to 80 | < 750 | < 5000 | < 10 | – |
| CNC(=O)c1ccc(Cl)c(NCC#Cc2nc3c(N[C@@H]4CCN(C)C[C@@H]4F)cccn3c2SC(F)(F)F)c1 [Example 312] | – | ≥ 10 | < 750 | < 750 | > 90 | < 750 | 5000 to 8000 | < 10 | – |
| CCNC(=O)c1ccc(NCC#Cc2nn3c(N[C@@H]4CCN(C)C[C@@H]4F)cccc3c2SC(F)F)c(OC)c1 [Example 317] | – | ≥ 10 | < 750 | < 750 | 80 to 90 | < 750 | ≥ 10000 | < 10 | – |
| CCNC(=O)c1ccc(OC)c(NCC#Cc2nn3c(N[C@@H]4CCN(C)C[C@@H]4F)cccc3c2SC(F)F)c1 [Example 318] | – | ≥ 10 | < 750 | < 750 | 80 to 90 | < 750 | 5000 to 8000 | < 10 | – |
| CNC(=O)c1ccc(NCC#Cc2nc3c(N[C@@H]4CCNC[C@@H]4F)nccn3c2SC(F)(F)F)c(OC)c1 [Example 319] | – | ≥ 10 | < 750 | < 750 | > 90 | < 750 | ≥ 10000 | < 10 | – |
| CNC(=O)c1ccc(OC)c(NCC#Cc2cc3c(N[C@@H]4CCN(C)C[C@@H]4F)nccn3c2SC(F)F)c1 [Example 321] | – | ≥ 10 | < 750 | < 750 | > 90 | < 750 | ≥ 10000 | < 10 | – |
| CNC(=O)c1ccc(NCC#Cc2nc3c(N[C@@H]4C[C@H]5CC[C@H](N5)[C@@H]4F)cccn3c2SC(F)(F)F)c(OC)c1 [Example 324, 4-{[3-(8-{[(1S,2S,3R,5R)-2-fluoro-8-azabicyclo[3.2.1]octan-3-yl]amino}-3-[(trifluoromethyl)sulfanyl]imidazo[1,2-a]pyridin-2-yl)prop-2-yn-1-yl]amino}-3-methoxy-N-methylbenzamide] | – | ≥ 10 | < 750 | < 750 | 80 to 90 | < 750 | 5000 to 8000 | < 10 | ≥ 10 |
| CNC(=O)c1cnc(OC)c(NCC#Cc2cc3c(N[C@@H]4CCN(C)C[C@@H]4F)nccn3c2SC(F)F)c1 [Example 327] | – | ≥ 10 | < 750 | < 750 | > 90 | < 750 | ≥ 10000 | < 10 | – |
| CNC(=O)c1ccc(OC2COC2)c(NCC#Cc2cc3c(N[C@@H]4CCN(C)C[C@@H]4F)nccn3c2SC(F)(F)F)c1 [Example 336] | – | ≥ 10 | < 750 | < 750 | > 90 | < 750 | < 5000 | < 10 | – |
| CNC(=O)c1cnc(OC)c(NCC#Cc2cc3c(N[C@@H]4CN(C)C[C@@H]4F)cccn3c2SC(F)(F)F)c1 [Example 338] | – | ≥ 10 | < 750 | < 750 | > 90 | < 750 | 5000 to 8000 | < 10 | – |
| COc1cc(S(C)(=O)=O)ccc1NCC#Cc1cc2c(N[C@@H]3CN(C)C[C@@H]3F)cccn2c1SC(F)(F)F [Example 339] | – | ≥ 10 | < 750 | < 750 | 80 to 90 | < 750 | 5000 to 8000 | < 10 | – |
| CNC(=O)c1ccc(OC)c(NCC#Cc2cc3c(N[C@@H]4CCNC[C@@H]4F)nccn3c2SC(F)(F)F)n1 [Example 340] | – | ≥ 10 | < 750 | < 750 | 80 to 90 | < 750 | ≥ 10000 | < 10 | – |

From patent US20260374766A1, “METHODS FOR TREATING CANCER” (Antares Therapeutics, Inc., priority 2022, published 2026)
